According to patent US20060135796A1, “Antiangiogenic agents” (priority 2000, published 2006):
Like-named read-outs stand apart in the source and are kept apart here.

Assays:
HUVEC cells = assay: HUVEC in vitro cellular proliferation inhibition (BrdU); type: cell-based, human; conditions: for antiproliferative activity in HUVEC cells, in words: inhibition of HUVEC / endothelial cell proliferation in vitro
Protocol: HUVAC In Vitro Cellular Proliferation Inhibition
HUVAC Cells and Culture Conditions
HUVAC Cells were Grown in EGM (Clonetics)
HUVEC cells were plated at 5000 cells/ml in 96-well plates. After allowing the cells to attach overnight, the cells were washed with PBS and incubated in the absence of growth factor for 24 h (EBM, 2% FCS, Clonetics). Cells were treated with increasing concentrations of drug in EBM containing 2% FCS and 10 ng.ml bFGF for 48 h at 37° C. Drug preparation, volumes added and BrdU proliferation assay were performed as indicated above.
(§1) In order to assess the biological activity of modifications at position 16, the anti-proliferative activity of these analogs was evaluated on human umbilical vein endothelial cells (HUVEC) and breast carcinoma cell line, MDA-MB-231 as models for the anti-angiogenic and anti-tumor activity, respectively.

[1] = system: MDA-MB-231 human breast carcinoma cells; assay: MDA-MB-231 in vitro cellular proliferation inhibition (BrdU); type: cell-based; conditions: for fold less activity than 2-methoxyestradiol: MDA-MB-231 tumor cell line, compared to 2-methoxyestradiol; for antiproliferative activity in MDA-MB-231 cells, in words: breast tumor MDA-MB-231 cells
Protocol: MDA-MB-231 In Vitro Cellular Proliferation Inhibition
MDA-MB-231 Cells and Culture Conditions
MDA-MB-231 human breast carcinoma cells were grown in DMEM containing 10% FCS (Hyclone Laboratories, Logan Utah) and supplemented with 2 mM L-Glutamine, 100 units/ml penicillin, 100 μg/ml streptomycin (Irvine Scientific, Santa Anna, Calif.).
MDA-MB-231 cells were plated at 5000 cells/ml in 96 well plates. After allowing the cells to attach overnight, the appropriate fresh media were applied containing differing concentrations of 2-ME2 or derivatives thereof, as described below. Drug was dissolved in DMSO (Sigma, St. Louis, Mo.) and added to the wells in a volume of 200 μl. Cells were incubated for two days at 37° C.; at 32 h BrdU was added. BrdU cell proliferation assay (a nucleotide analogue with a fluorescein tag that is incorporated into DNA) was performed as described by the manufacturer (Roche). Each condition was prepared in triplicate and the experiments were carried out a minimum of two times. Results are presented and means ±SE.
as §1

[2] = system: estrogen dependant MCF-7 cells; assay: MCF7 proliferation index (estrogenic activity); type: cell-based; conditions: measure of estrogenic activity
Source text: All of these analogs have the capacity to from a hydrogen bond with the hydroxy group at position 3 and this may be the reason for their relatively low estrogenic character compared to estradiol. Both the 2-methylhydroxy and 2-formyl derivatives had good antiproliferative activity (IC50<10 microM) in HUVEC cells, whereas the 2-acetyl had poor activity in the same assay.

[3] = system: chick embryo chorioallantoic membrane; assay: chick embryo chorioallantoic membrane (CAM) assay; type: in vivo; set-up: dose or concentration left out as unconfirmed; conditions: methylcellulose disc on CAM, after 48 hours
Protocol: Anti-proliferative activity is evaluated in situ by testing the ability of an improved estradiol derivative to inhibit the proliferation of new blood vessel cells (angiogenesis). A suitable assay is the chick embryo chorioallantoic membrane (CAM) assay described by Crum et al. Science 230:1375 (1985). See also, U.S. Pat. No. 5,001,116, hereby incorporated by reference, which describes the CAM assay. Briefly, fertilized chick embryos are removed from their shell on day 3 or 4, and a methylcellulose disc containing the drug is implanted on the chorioallantoic membrane. The embryos are examined 48 hours later and, if a clear avascular zone appears around the methylcellulose disc, the diameter of that zone. is measured.

[4] = Table 2, 2-methoxyestradiol modified at position 16, 48 h, bFGF, read-out: HUVEC IC50
[5] = Table 2, 2-methoxyestradiol modified at position 16, two days, read-out: MDA-MB-231 IC50
[6] = Table 1, 2-modified estradiol derivatives, read-out: HUVEC (IC50 μM)
[7] = text statement b78, read-out: antiproliferative activity IC50 in HUVEC cells
[8] = Table 1, 2-modified estradiol derivatives, read-out: MDA-MB-231 (IC50 μM)

Row | IC50 [1, 5] | Compound | IC50 (HUVEC cells; [4]) | MCF7 Proliferation Index [2] | other results
1 | 40 µM | 16β-isobutyl-2-methoxyestradiol | 7.5 µM | – | fold difference between tumor cell and endothelial cell antiproliferative activity (selectivity) ([1]; MDA-MB-231 versus HUVEC): 5 fold
2 | 3 µM | CCC1C[C@H]2[C@@H]3CCc4cc(O)c(OC)cc4[C@H]3CC[C@]2(C)[C@H]1O (mixture of isomers) [ethyl (—CH2CH3), Racemic 16-ethyl-2-methoxyestradiol] | 2 µM | – | antiproliferative activity in HUVEC cells, in words (HUVEC cells): about equipotent to 2-methoxyestradiol; fold less activity than 2-methoxyestradiol [1]: ~3 fold
3 | 0.9 µM | COc1cc2c(cc1O)CC[C@@H]1[C@@H]2CC[C@]2(C)[C@@H](O)CC[C@@H]12 [Example 2ME2, 2-Methoxyestradiol, reference compound] | – | 4.4 | inhibition of cell mitosis and growth of new blood vessels [3]: inhibit cell mitosis and the growth of new blood vessels; IC50 [1, 8]: 0.9 µM
4 | < 0.5 µM | COc1cc2c(cc1O)CC[C@@H]1[C@@H]2CC[C@]2(C)[C@@H](O)[C@H](C)C[C@@H]12 [methyl (—CH3), 16α-methyl-2methoxyestradiol] | < 0.5 µM | – | antiproliferative activity in HUVEC cells, in words (HUVEC cells): greater activity than 2-methoxyestradiol; antiproliferative activity in MDA-MB-231 cells, in words [1]: better activity than 2-methoxyestradiol

More lines, now with the values behind:

Row | Compound | IC50 [1, 5] | IC50 (HUVEC cells; [4]) | MCF7 Proliferation Index [2] | other results
5 | C[C@]12CC[C@@H]3c4cc(CO)c(O)cc4CC[C@H]3[C@@H]1CC[C@@H]2O [2-methyl hydroxy-E2] | – | – | 7.4 | IC50 (HUVEC cells; [6]): 10 µM; IC50 (HUVEC cells; [7]): < 10 µM; IC50 [1, 8]: > 25 µM; antiproliferative activity in MDA-MB-231 cells, in words [1]: inactive
6 | COc1cc2c(cc1O)CC[C@@H]1[C@@H]2CC[C@]2(C)[C@@H](O)[C@@H](CN(C)C)C[C@@H]12 [16β-methyl(dimethylamine)-2-methoxyestradiol] | 22 µM | 9 µM | – | –
7 | CC(=O)c1cc2c(cc1O)CC[C@@H]1[C@@H]2CC[C@]2(C)[C@@H](O)CC[C@@H]12 [Example 2-acetyl-E2] | – | – | 4.4 | IC50 (HUVEC cells; [6]): 18 µM; antiproliferative activity in HUVEC cells, in words (HUVEC cells): poor activity; IC50 [1, 8]: 9 µM; antiproliferative activity in MDA-MB-231 cells, in words [1]: good activity
8 | CC12CCC3c4cc(C=O)c(O)cc4CCC3C1CCC2O (stereo not drawn) [Example 2-formyl-E2] | – | – | 5.4 | IC50 (HUVEC cells; [6]): 8 µM; IC50 (HUVEC cells; [7]): < 10 µM; IC50 [1, 8]: > 25 µM; antiproliferative activity in MDA-MB-231 cells, in words [1]: inactive
9 | C[C@]12CC[C@@H]3c4ccc(O)cc4CC[C@H]3[C@@H]1CC[C@@H]2O [Example E2, estradiol, reference compound] | – | – | 13.1 | –
10 | COc1cc2c(cc1O)CC[C@@H]1[C@@H]2CC[C@]2(C)[C@@H](O)[C@@H](CO)C[C@@H]12 [methanol (—CH2OH), 16β-methanol-2-methoxyestradiol] | 22 µM | 15 µM | – | –
11 | COc1cc2c(cc1O)CC[C@@H]1[C@@H]2CC[C@]2(C)[C@@H](O)[C@@H](C)C[C@@H]12 [methyl, 16β-methyl-2methoxyestradiol] | 5 µM | 1.3 µM | – | fold less activity than 2-methoxyestradiol [1]: about 5 fold
12 | CCCC[C@H]1C[C@H]2[C@@H]3CCc4cc(O)c(OC)cc4[C@H]3CC[C@]2(C)[C@H]1O [n-butyl, 16β-n-butyl-2-methoxyestradiol] | 39 µM | 9 µM | – | –
13 | CCC[C@@H]1C[C@H]2[C@@H]3CCc4cc(O)c(OC)cc4[C@H]3CC[C@]2(C)[C@H]1O [n-propyl (—CH2CH2CH3), 16α-n-propyl-2-methoxyestradiol] | > 50 µM | 6 µM | – | antiproliferative activity in HUVEC cells, in words (HUVEC cells): good activity
14 | CCC[C@H]1C[C@H]2[C@@H]3CCc4cc(O)c(OC)cc4[C@H]3CC[C@]2(C)[C@H]1O [n-propyl, 16β-n-propyl-2-methoxyestradiol] | 36 µM | 9 µM | – | –
